ChEMBL document CHEMBL5661979, “Pharmacological inhibition of BMK1 suppresses tumor growth through promyelocytic leukemia protein” (Cancer Cell, 2010)

Legend:
[1] = biological target: T1, Serine/threonine-protein kinase TAO2 (Homo sapiens) (UniProt Q9UL54); assay: Inhibition of TAO2 in human HeLa cells lysate at 50 uM pre incubated for 15 mins followed by ATP acyl phosphate probe addition and measured after 10 mins by LC-MS/MS analysis relative to control; assay type: subcellular; settings: time 25.0 min
T1 sequence (whole entry): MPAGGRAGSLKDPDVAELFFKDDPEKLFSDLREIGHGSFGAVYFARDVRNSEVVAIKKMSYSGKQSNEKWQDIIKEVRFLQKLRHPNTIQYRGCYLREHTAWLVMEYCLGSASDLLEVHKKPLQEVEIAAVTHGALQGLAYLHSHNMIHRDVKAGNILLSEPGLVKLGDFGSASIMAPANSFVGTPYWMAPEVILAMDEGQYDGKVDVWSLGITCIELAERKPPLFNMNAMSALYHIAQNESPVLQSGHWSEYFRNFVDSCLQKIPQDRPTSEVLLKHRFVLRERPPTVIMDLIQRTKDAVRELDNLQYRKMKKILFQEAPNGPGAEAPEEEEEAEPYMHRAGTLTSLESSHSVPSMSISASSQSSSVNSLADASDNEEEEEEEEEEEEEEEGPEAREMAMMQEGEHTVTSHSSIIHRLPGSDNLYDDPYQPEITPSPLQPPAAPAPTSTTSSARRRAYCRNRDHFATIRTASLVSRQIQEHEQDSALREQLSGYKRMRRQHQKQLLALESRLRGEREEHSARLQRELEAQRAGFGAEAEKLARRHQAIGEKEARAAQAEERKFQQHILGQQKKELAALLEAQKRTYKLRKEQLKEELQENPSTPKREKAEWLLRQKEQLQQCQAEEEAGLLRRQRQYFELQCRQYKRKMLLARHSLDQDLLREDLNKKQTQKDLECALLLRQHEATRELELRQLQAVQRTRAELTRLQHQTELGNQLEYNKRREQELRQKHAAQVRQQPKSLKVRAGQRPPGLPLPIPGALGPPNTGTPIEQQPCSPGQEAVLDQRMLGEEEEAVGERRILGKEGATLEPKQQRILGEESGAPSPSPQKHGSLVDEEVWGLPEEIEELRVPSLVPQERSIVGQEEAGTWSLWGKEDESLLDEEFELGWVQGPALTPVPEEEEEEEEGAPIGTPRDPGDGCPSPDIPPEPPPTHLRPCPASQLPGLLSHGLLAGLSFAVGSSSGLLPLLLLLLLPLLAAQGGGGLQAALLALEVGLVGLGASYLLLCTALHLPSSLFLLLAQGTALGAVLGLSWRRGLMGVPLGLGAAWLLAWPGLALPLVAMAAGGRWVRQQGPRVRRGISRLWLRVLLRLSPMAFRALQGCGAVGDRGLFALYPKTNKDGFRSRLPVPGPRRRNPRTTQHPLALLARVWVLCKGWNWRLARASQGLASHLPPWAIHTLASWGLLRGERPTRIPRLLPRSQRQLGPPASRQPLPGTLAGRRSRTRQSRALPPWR

[2] = biological target: Macrophage-stimulating protein receptor (Homo sapiens, UniProt Q04912); assay: Inhibition of RON in human HeLa cells lysate pre incubated for 15 mins followed by ADP acyl phosphate probe addition and measured after 10 mins by LC-MS/MS analysis; assay type: subcellular
Macrophage-stimulating protein receptor, sequence (Q04912 25-304 limits assumed): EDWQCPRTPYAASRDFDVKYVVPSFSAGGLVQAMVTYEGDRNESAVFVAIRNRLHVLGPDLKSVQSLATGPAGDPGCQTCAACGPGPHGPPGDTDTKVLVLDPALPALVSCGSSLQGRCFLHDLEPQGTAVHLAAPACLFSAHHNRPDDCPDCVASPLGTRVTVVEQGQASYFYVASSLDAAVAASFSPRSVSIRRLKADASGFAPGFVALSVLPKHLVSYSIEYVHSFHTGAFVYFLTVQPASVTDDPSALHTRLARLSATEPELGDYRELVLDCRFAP
Macrophage-stimulating protein receptor, sequence (Q04912 310-1400 limits assumed): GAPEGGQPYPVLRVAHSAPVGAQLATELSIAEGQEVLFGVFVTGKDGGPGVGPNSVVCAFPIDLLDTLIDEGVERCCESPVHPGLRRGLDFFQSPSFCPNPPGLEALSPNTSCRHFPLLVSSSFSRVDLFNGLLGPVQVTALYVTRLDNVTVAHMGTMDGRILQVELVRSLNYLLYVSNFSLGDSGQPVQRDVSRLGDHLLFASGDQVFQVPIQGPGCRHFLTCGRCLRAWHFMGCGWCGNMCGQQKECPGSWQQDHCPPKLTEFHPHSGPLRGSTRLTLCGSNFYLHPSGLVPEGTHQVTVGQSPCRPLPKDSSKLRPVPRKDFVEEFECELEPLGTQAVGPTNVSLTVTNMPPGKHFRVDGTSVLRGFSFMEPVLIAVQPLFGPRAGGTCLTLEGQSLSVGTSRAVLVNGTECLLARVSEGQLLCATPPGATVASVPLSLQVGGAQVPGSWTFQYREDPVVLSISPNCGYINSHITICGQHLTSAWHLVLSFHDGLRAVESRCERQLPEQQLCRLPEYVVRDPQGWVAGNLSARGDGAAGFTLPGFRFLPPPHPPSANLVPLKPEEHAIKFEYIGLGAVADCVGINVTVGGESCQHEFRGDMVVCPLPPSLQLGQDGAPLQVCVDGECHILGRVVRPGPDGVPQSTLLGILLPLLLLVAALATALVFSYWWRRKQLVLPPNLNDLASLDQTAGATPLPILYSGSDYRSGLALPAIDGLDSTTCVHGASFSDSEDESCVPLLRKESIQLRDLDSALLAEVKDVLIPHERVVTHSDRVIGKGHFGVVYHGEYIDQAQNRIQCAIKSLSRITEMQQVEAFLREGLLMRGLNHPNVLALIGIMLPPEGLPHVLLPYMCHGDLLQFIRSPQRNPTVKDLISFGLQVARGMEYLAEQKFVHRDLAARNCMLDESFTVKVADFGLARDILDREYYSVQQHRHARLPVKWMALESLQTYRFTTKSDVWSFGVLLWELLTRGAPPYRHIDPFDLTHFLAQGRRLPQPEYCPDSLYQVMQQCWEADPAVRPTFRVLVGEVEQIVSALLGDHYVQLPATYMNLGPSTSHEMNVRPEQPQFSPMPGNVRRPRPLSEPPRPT

[3] = biological target: MAP/microtubule affinity-regulating kinase 3 (Homo sapiens, UniProt P27448); assay: Inhibition of MARK3 in human HeLa cells lysate at 10 uM pre incubated for 15 mins followed by ATP acyl phosphate probe addition and measured after 10 mins by LC-MS/MS analysis relative to control; assay type: subcellular; settings: time 25.0 min
[4] = biological target: Serine/threonine-protein kinase Nek3 (Homo sapiens, UniProt P51956); assay: Inhibition of NEK3 in human HeLa cells lysate pre incubated for 15 mins followed by ADP acyl phosphate probe addition and measured after 10 mins by LC-MS/MS analysis; assay type: subcellular
[5] = biological target: Serine/threonine-protein kinase 24 (Homo sapiens, UniProt Q9Y6E0); assay: Inhibition of MST3 in human HeLa cells lysate at 2 uM pre incubated for 15 mins followed by ADP acyl phosphate probe addition and measured after 10 mins by LC-MS/MS analysis relative to control; assay type: subcellular; settings: time 25.0 min
Serine/threonine-protein kinase 24, sequence (Q9Y6E0 whole entry, looked up): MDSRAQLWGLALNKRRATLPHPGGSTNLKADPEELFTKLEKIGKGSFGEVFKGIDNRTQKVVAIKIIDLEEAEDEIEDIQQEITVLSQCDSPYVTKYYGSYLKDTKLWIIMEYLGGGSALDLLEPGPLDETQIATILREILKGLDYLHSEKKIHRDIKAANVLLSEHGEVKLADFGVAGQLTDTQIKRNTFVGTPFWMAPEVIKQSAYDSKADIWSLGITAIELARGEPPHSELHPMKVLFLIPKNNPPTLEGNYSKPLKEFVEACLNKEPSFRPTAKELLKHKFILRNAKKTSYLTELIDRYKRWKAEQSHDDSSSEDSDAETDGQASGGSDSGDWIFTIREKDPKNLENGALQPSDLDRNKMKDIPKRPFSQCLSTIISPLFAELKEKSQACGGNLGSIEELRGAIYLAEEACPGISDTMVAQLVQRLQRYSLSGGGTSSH

[6] = biological target: Epidermal growth factor receptor (Homo sapiens, UniProt P00533); assay: Inhibition of EGFR in human HeLa cells lysate at 2 uM pre incubated for 15 mins followed by ADP acyl phosphate probe addition and measured after 10 mins by LC-MS/MS analysis relative to control; assay type: subcellular; settings: time 25.0 min
Epidermal growth factor receptor, sequence (P00533 whole entry): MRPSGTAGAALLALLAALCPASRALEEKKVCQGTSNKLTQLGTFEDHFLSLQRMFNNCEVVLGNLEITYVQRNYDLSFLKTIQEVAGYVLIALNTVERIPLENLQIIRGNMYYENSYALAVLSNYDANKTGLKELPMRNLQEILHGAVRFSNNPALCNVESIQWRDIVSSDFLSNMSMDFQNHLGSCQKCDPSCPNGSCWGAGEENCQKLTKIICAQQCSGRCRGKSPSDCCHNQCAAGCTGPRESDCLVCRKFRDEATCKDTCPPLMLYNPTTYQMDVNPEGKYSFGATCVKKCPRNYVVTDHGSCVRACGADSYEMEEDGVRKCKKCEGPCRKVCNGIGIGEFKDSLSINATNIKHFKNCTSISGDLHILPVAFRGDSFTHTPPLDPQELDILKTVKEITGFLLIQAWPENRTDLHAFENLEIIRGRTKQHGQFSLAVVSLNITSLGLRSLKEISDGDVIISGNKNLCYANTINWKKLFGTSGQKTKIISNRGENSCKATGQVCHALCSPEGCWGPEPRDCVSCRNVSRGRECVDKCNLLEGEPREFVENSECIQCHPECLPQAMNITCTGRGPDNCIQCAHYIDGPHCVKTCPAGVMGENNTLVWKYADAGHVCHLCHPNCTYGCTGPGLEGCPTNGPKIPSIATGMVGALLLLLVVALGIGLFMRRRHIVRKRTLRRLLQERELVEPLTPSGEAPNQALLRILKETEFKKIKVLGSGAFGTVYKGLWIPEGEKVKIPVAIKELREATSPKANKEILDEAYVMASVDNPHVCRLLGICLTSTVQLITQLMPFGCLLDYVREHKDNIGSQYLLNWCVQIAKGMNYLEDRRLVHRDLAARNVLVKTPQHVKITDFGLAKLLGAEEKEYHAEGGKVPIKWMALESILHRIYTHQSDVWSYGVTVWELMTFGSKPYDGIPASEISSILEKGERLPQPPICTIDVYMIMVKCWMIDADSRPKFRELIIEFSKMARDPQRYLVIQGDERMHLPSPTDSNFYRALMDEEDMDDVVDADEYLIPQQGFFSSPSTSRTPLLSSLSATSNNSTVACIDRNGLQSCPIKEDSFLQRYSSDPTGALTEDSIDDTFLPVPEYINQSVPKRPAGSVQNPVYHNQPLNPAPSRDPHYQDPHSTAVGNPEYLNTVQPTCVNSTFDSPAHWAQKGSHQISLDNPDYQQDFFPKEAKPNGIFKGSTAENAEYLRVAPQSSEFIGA

[7] = Inhibition of HGK/MINK/TNIK in human HeLa cells lysate at 2 uM pre incubated for 15 mins followed by ATP acyl phosphate probe addition and measured after 10 mins by LC-MS/MS analysis relative to control; settings: 25 min, condition cancer
[8] = Inhibition of NEK6/7 in human HeLa cells lysate at 50 uM pre incubated for 15 mins followed by ATP acyl phosphate probe addition and measured after 10 mins by LC-MS/MS analysis relative to control; settings: 25 min, condition cancer
[9] = biological target: Dual specificity mitogen-activated protein kinase kinase 1 (Homo sapiens, UniProt Q02750); assay: Inhibition of MAP2K1 in human HeLa cells lysate at 10 uM pre incubated for 15 mins followed by ATP acyl phosphate probe addition and measured after 10 mins by LC-MS/MS analysis relative to control; assay type: subcellular; settings: time 25.0 min
[10] = biological target: Phosphatidylinositol 4-kinase beta (Homo sapiens, UniProt Q9UBF8); assay: Inhibition of PIK4CB in human HeLa cells lysate at 10 uM pre incubated for 15 mins followed by ADP acyl phosphate probe addition and measured after 10 mins by LC-MS/MS analysis relative to control; assay type: subcellular; settings: time 25.0 min
[11] = biological target: Serine/threonine-protein kinase/endoribonuclease IRE1 (Homo sapiens, UniProt O75460); assay: Inhibition of IRE1 in human HeLa cells lysate at 2 uM pre incubated for 15 mins followed by ADP acyl phosphate probe addition and measured after 10 mins by LC-MS/MS analysis relative to control; assay type: subcellular; settings: time 25.0 min
Serine/threonine-protein kinase/endoribonuclease IRE1, sequence (O75460 19-977 limits assumed): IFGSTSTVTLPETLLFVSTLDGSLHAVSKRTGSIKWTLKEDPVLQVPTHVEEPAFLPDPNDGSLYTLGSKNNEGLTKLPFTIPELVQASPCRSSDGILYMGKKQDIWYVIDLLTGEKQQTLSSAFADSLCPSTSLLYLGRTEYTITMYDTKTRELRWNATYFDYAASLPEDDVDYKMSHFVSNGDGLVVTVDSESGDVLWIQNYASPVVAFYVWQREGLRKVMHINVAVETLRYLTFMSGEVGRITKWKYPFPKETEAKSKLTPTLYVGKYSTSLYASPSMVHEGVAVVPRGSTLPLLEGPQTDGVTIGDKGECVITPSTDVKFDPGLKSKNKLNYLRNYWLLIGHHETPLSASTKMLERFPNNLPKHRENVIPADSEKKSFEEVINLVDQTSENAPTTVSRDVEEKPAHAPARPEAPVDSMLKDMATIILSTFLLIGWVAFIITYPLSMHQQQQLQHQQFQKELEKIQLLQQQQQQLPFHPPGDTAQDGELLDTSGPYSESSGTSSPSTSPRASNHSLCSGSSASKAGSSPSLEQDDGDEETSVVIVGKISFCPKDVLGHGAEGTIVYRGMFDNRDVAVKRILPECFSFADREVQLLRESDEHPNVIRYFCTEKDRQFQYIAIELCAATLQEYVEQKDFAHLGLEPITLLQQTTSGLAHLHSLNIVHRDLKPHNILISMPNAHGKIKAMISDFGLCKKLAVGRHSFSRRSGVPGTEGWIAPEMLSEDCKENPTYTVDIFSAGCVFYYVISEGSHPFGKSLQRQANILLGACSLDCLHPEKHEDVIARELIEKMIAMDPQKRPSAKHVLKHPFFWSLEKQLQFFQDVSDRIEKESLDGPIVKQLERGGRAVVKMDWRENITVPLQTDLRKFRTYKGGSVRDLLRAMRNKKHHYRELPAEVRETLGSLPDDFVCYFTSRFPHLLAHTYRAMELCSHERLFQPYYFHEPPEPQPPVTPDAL

[12] = Inhibition of PCTAIRE2/ICK in human HeLa cells lysate at 10 uM pre incubated for 15 mins followed by ADP acyl phosphate probe addition and measured after 10 mins by LC-MS/MS analysis relative to control; settings: 25 min, condition cancer
[13] = Inhibition of CK1g1/g2/g3 in human HeLa cells lysate at 50 uM pre incubated for 15 mins followed by ADP acyl phosphate probe addition and measured after 10 mins by LC-MS/MS analysis relative to control; settings: 25 min, condition cancer
[14] = biological target: Serine/threonine-protein kinase LATS2 (Homo sapiens, UniProt Q9NRM7); assay: Inhibition of LATS2 in human HeLa cells lysate pre incubated for 15 mins followed by ADP acyl phosphate probe addition and measured after 10 mins by LC-MS/MS analysis; assay type: subcellular
Serine/threonine-protein kinase LATS2, sequence (Q9NRM7 whole entry): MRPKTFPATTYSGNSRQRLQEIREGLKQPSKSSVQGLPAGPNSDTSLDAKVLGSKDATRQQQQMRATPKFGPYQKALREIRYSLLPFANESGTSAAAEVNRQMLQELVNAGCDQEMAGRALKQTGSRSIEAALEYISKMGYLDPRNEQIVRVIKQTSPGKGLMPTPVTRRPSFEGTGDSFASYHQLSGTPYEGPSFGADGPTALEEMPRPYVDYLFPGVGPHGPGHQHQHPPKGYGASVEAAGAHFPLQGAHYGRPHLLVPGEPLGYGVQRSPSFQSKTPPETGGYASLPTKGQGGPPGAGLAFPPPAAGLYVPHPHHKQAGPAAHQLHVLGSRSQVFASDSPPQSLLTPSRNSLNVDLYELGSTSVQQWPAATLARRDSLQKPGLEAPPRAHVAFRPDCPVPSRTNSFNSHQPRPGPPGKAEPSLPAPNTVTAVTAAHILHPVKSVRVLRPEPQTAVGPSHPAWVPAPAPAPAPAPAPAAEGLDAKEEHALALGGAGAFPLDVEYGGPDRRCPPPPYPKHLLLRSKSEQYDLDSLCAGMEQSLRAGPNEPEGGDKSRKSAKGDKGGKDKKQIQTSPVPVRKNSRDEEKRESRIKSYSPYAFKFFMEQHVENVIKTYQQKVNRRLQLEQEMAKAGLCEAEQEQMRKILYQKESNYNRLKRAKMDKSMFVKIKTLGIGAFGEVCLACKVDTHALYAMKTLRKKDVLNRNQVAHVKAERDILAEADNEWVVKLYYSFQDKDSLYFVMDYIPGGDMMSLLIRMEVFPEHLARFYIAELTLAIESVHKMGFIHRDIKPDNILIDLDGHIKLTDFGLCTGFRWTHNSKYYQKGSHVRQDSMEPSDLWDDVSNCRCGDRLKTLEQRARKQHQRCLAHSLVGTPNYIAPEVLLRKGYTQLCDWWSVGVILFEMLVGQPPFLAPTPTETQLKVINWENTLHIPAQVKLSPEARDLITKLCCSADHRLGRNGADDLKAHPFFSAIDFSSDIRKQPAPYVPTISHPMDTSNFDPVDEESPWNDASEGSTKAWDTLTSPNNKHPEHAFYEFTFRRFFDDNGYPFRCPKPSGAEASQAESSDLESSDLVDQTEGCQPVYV

[15] = biological target: Dual specificity mitogen-activated protein kinase kinase; MEK1/2 (Homo sapiens, UniProt P36507+Q02750); assay: Inhibition of MAP2K1/MAP2K2in human HeLa cells lysate at 2 uM pre incubated for 15 mins followed by ADP acyl phosphate probe addition and measured after 10 mins by LC-MS/MS analysis relative to control; assay type: subcellular; settings: time 25.0 min
[16] = biological target: Interferon-induced, double-stranded RNA-activated protein kinase (Homo sapiens, UniProt P19525); assay: Inhibition of PKR in human HeLa cells lysate at 10 uM pre incubated for 15 mins followed by ATP acyl phosphate probe addition and measured after 10 mins by LC-MS/MS analysis relative to control; assay type: subcellular; settings: time 25.0 min

Q: With `CCOc1cc(N2CCC(O)CC2)ccc1Nc1ncc2c(n1)N(C)c1ccccc1C(=O)N2C` as the molecule, how does the inhibition [1] read?
A: Its inhibition is 6.6%.

Q: And the IC50 [2]?
A: The IC50 was greater than 50 µM.

Q: What about the inhibition [3] of the same molecule?
A: Its inhibition is -9.2%.

Q: What about the IC50 [4] of the same molecule?
A: Its IC50 is greater than 50 µM.

Q: What about the inhibition [5] of the same molecule?
A: Its inhibition is 3.2%.

Q: What about the inhibition [6] of the same molecule?
A: The inhibition was 12.2%.

Q: And the inhibition at 2 µM [7]?
A: Its inhibition at 2 µM is -5.2%.

Q: What about the inhibition at 50 µM [8] of the same molecule?
A: Its inhibition at 50 µM is -11.1%.

Q: What about the inhibition [9] of the same molecule?
A: Its inhibition is -1.9%.

Q: What about the inhibition [10] of the same molecule?
A: The inhibition was 1.1%.

Q: What about the inhibition [11] of the same molecule?
A: Its inhibition is 16.5%.

Q: What about the inhibition at 10 µM [12] of the same molecule?
A: Its inhibition at 10 µM is -0.9%.

Q: And the inhibition at 50 µM [13]?
A: The inhibition at 50 µM was -80.5%.

Q: And the IC50 [14]?
A: The IC50 was greater than 50 µM.

Q: What about the inhibition [15] of the same molecule?
A: Its inhibition is 0.6%.

Q: What about the inhibition [16] of the same molecule?
A: Its inhibition is -2.3%.
